Measured values from PMC9233675, “Ru(II) photocages enable precise control over enzyme activity with red light” (Nature Communications, 2022).
Where “and” joins values, the source holds several entries; their conditions need not be identical. Identical values can stand only once. Like-named read-outs stand apart in the source and are kept apart here.

Assays:
CYP19A1 [1] = molecular target: T1, CYP19A1 (Homo sapiens, UniProt P11511); assay: In cell activity assay for CYP19A1 (dibenzylfluorescein conversion, HEK293 T-Rex cells); format: cell-based; conditions: concentrations up to 30 μM, in the dark and following irradiation to form 7
T1 sequence (P11511 1-503): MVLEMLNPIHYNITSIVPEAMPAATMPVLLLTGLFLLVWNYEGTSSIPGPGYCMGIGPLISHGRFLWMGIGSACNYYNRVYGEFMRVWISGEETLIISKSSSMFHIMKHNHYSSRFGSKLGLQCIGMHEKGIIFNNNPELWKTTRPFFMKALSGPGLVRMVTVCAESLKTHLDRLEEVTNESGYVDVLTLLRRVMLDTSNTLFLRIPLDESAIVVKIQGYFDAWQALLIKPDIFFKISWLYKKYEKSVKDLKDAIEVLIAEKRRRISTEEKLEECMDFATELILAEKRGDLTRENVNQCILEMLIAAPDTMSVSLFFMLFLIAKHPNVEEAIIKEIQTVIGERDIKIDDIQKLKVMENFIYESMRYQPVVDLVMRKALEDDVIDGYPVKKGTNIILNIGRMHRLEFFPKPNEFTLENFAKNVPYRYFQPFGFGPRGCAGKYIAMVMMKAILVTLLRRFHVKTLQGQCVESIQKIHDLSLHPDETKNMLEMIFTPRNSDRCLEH
Method: Thus, the activity against CYP19A1 was evaluated using a recently developed in-cell fluorometric assay.
REE or DBF was added as described above.

HEK293 T-Rex cell line = assay: Cellular viability (resazurin to resorufin, 72 h); format: cell-based, human; conditions: Supplementary Fig. 24d
Method: The cells were >70% viable at 72 h with 10 μM compound, as quantified by metabolically active cells determined by the conversion of resazurin to resorufin (Supplementary Figs. 18–20).
The parental HEK T-Rex cell line was maintained as above, in the absence of Zeocin. Compounds were serially diluted in media, and the cells were dosed from 0–30 μM compound, and then incubated at 37 °C (n = 3). […] The cells were incubated with the compound in the dark for 30 min prior to light exposure, using the same parameters as in the enzyme activity assay, and then treated as above.

[2] = Stability of complexes at 37 °C in the dark (HPLC, UV/Vis); format: physicochemical
Method: The stability of each complex was assessed over 24 h under aqueous conditions at 37 °C (Supplementary Figs. 12–15). […] Given the potency of the caged inhibitor, thermal stability is of critical importance, making complex 6 the preferred photocaged candidate.
Opti-MEM with 2% fetal bovine serum (right) at 37 °C in the dark over the course of 0 (blue line) to 24 h (black dashed line). Compounds were tested in triplicate (n = 3), the data for one replicate are presented. Complexes 4 and 5 slowly degraded in the experiment condition (see HPLC traces, Figures S13–14). The decrease in absorbance for complex 6 is explained by the slow aggregation of the compound in the 96-well plate.
(1 picture or pasted object on this page, not shown here)
Supplementary Figure 13. a HPLC chromatogram analysis of stability of 4 (50 µM in di-H2O) before (black dashed line, purity > 92 % ) and after incubation at 37 °C for 24 hours (red line). At 24 hours, 43 % of 4 was […]
Supplementary Figure 14. HPLC chromatogram analysis of stability of 5 (50 µM in di-H2O) before (black dashed line, purity > 97 %) and after incubation at 37 °C for 24 hours (red line). At 24 hours, 50 % of 5 was observed […]
Supplementary Figure 15. HPLC chromatogram analysis of stability of 6 (40 µM in di-H O : MeCN mixture (4:1), […]
MeCN was added to reduce the aggregation) before (black dashed line, purity > 99.5 %) and after incubation at 37 °C for 24 hours. At 24 hours, less than 2 % degradation was observed (calculated by area, detection wavelength = […]
Supplementary Figure 16. HPLC chromatogram analysis of stability of 6 (40 µM) in 5 % DMSO / di-H2O with a 100 μM GSH, b 100 μM imidazole and c acidic condition (pH = 1) after incubation at 37 °C for 72 hours. Less than […]
detection wavelength = 280 nm). […]
imidazole and c acidic condition (pH = 1) after incubation at 37 °C for 72 hours. d At 72 hours less than 7 % degradation was observed by HPLC at pH = 1 (calculated by area, detection wavelength = 280 nm). Compounds were tested in triplicate (n = 3), the data for one replicate are presented.

[3] = Irradiation-induced 1O2 production (Singlet Oxygen Sensor Green assay); format: physicochemical; conditions: sheet S27; triplicate columns; DMSO control about 0.9
Source text: Some Ru(II) complexes can generate singlet oxygen when photoexcited, a feature that has been applied to the selective photoinactivation of proteins. In this approach, the Ru(II) system is conjugated to a peptide that is a specific ligand for the protein target; binding of the peptide to the protein ensures close proximity of the Ru(II) center and thus, upon photoexcitation, the generation of a high local concentration of singlet oxygen. […] As very little of this reactive oxygen species was generated, inactivation of the CYP enzymes by this process appears unlikely.
Supplementary Figure 27. Determination of irradiation-induced 1O2 production with 660 nm light (1 hr = 58.7 J/cm2)
using the Singlet Oxygen Sensor Green assay. […]

human isoform of CYP51 = molecular target: human isoform of CYP51; set-up: method as in PMID 23826084; conditions: cited from earlier work
CYP3A4 = test system: CYP3A4; set-up: method as in PMID 23018626; conditions: cited from earlier work
fungal CYP51 = conditions: read-out: Kd fungal CYP51; cited from earlier work
[4] = set-up: method as in Scifinder; conditions: ref Scifinder; cited from earlier work
[5] = human, microsomes
[6] = rat, microsomes
[7] = mouse, microsomes
CYP19A1 [8] = test system: CYP19A1; set-up: method as in PMID 9152599; conditions: cited from earlier work

Structure (SMILES): O=C([O-])c1cc2[n+](c3ccccc13)[Ru-4]13([n+]4ccccc4)([n+]4ccccc4-c4cccc([n+]41)-c1cccc[n+]13)[n+]1c-2cc(C(=O)[O-])c2ccccc21 [Compound 8, [Ru(tpy)(bca)(pyridine)]]
- impact on any CYP (CYP19A1) (CYP19A1 [1]): no impact
- effect on cell health (HEK293 T-Rex cell line): no effect
- degradation at pH = 1 ([2]; 5 % DMSO / di-H2O, acidic condition (pH = 1), 37 °C, 72 hours): less than 7%
- degradation over 72 h ([2]; Supplementary Fig. 17): < 7%
- irradiation-induced 1O2 production (Singlet Oxygen Sensor Green signal, relative) [3]: 1.034 and 0.94 and 1.135

Structure (SMILES): CC(=O)N1CCN(c2ccc(OCC3COC(Cn4ccnc4)(c4ccc(Cl)cc4Cl)O3)cc2)CC1 (centres unmarked) [Ketoconazole, ketoconazole]
- Kd (human isoform of CYP51): 42 nM
- Kd (fungal CYP51): 27 nM

Structure (SMILES): Cc1ccncc1 [methyl pyridine]
- pKa [4]: 5.9

Structure (SMILES): COc1ccc(/C=C/c2cc[n+]([Os-4]34([Cl])([n+]5ccccc5-c5cccc[n+]53)[n+]3ccccc3-c3cccc[n+]34)cn2)c(OC)c1.[Cl-] [[Os(bpy)2(2)Cl]Cl]
- CLint(mic) [5]: < 9.6 µL/min/mg
- T1/2 [5]: > 2.42 h
- Remaining, % (NCF=60min) ([5]; 1 h): 107%
- Remaining, % (T=60min) ([5]; 1 h): 78.4%
- CLint(mic) [6]: 16.9 µL/min/mg
- T1/2 [6]: 1.36 h
- Remaining, % (NCF=60min) ([6]; 1 h): 91.8%
- Remaining, % (T=60min) ([6]; 1 h): 56.5%
- CLint(mic) [7]: < 9.6 µL/min/mg
- T1/2 [7]: > 2.42 h
- Remaining, % (NCF=60min) ([7]; 1 h): 75.9%
- Remaining, % (T=60min) ([7]; 1 h): 71.8%

Structure (SMILES): CC(C)(C#N)c1cc(Cn2cncn2)cc(C(C)(C)C#N)c1 [Anastrozole, anastrozole]
- selectivity for CYP19A1 over liver CYPs (CYP19A1 [8]): at least 500 fold

Structure (SMILES): Cc1ccncn1 [methyl pyrimidine]
- pKa [4]: 2.0
